According to patent publication US7241902B2, “Allylmercaptocaptopril compounds and uses thereof” (Yeda Research and Development Co. Ltd., priority 2001, dated 2007):

Legend:
[1] = biological target: T1, angiotensin converting enzyme (Homo sapiens, UniProt P12821); test: Angiotensin converting enzyme activity in vitro in reference serum (Carmel et al 1979); type: biochemical; details: serial dilutions added to a reference serum; FIG. 2
T1 construct: from tissue
Experimental: The activity of angiotensin-converting enzyme was assayed according to Carmel et al (1979).
In order to determine if CPSSA reacts in a similar way to captopril, which inhibits the activity of angiotensin converting enzyme, serial dilutions of CPSSA were prepared.

papain = biological target: T2, papain (Carica papaya, UniProt P00784); test: SH modification of papain (residual enzyme activity, benzoyl arginine-p-nitro anilide hydrolysis); type: biochemical
T2 sequence (P00784 134-345): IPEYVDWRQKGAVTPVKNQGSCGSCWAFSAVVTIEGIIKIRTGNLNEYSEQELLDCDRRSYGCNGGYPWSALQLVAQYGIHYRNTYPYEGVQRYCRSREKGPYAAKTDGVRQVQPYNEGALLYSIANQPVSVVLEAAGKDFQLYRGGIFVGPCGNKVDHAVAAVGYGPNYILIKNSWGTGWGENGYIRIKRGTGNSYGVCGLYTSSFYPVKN
Experimental: CPSSA (0–5 mM) modification of activated and gel-filtered papain was conducted at room temperature in 50 mM sodium acetate, 2 mM EDTA pH 6.1. The inhibited papain was reactivated with 5 mM reduced glutathione.
Activated papain was mixed with various concentrations of CPSSA for 10 minutes at room temperature in 50 mM sodium acetate, 2 mM EDTA buffer, pH 6.5. The residual enzyme activity was measured by monitoring the rate of hydrolysis of the substrate benzoyl arginine-p-nitro anilide at 382 nm.

[2] = tested on: Sprague-Dawley rats fed fructose-rich diet; test: Fructose-rich diet rat model (Reaven's model): blood pressure, serum triglycerides, insulin, body weight; type: in vivo; details: for effect on serum insulin levels: FIG. 5
Experimental: In the present study, the effects of CPSSA and captopril on blood pressure, as well as serum levels of triglycerides and insulin, were compared. RESULTS
Model Sprague-Dawley male rates, five rats/group, 220–240 g body weight, were fed with a fructose-rich diet for three weeks, followed by two weeks of treatment with either CPSSA or captopril predissolved in the drinking water in doses of CPSSA of 40 and 57 mg/kg and 80 mg/kg captopril, together with the fructose-rich diet. The control group was fed only the fructose-rich diet. Measurements of body weight, blood pressure, serum levels of triglycerides and insulin were conducted at 0, 3, and 5 weeks into the treatment.

[3] = two weeks in drinking water, CPSSA 40 and 57 mg/kg, captopril 80 mg/kg

T1 sequence (P12821 30-1232 limits assumed): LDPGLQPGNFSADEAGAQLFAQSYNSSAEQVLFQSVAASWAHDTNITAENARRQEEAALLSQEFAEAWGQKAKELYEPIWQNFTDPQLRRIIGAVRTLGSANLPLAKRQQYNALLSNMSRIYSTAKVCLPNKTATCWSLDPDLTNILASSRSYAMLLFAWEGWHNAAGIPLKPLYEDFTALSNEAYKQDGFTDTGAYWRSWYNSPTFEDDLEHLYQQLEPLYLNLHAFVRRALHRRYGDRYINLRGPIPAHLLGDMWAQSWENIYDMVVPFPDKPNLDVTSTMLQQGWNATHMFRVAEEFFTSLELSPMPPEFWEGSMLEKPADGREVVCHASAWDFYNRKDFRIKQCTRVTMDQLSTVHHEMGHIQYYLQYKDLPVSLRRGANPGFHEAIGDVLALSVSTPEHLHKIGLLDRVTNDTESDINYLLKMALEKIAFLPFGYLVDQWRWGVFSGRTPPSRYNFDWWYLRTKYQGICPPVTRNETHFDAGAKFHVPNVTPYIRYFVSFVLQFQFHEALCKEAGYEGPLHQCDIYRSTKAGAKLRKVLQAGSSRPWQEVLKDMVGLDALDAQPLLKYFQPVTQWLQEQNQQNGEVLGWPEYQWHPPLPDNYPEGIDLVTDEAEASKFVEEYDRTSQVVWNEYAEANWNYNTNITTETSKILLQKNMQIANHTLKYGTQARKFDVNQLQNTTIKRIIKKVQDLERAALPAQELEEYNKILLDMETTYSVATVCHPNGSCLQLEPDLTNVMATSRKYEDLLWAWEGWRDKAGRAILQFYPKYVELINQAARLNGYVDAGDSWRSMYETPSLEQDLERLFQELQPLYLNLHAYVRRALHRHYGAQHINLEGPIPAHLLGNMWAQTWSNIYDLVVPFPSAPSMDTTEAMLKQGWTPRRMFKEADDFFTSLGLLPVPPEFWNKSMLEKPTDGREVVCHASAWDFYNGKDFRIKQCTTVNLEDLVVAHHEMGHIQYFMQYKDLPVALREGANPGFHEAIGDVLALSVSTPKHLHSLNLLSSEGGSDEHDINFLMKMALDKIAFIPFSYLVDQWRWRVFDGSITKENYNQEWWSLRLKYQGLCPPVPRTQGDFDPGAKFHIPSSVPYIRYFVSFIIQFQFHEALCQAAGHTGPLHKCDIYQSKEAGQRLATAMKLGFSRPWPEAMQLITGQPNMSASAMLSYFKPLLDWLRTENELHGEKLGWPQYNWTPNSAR

C=CCSSC[C@H](C)C(=O)N1CCC[C@H]1C(=O)O [CPSSA, S-allylmercaptocaptopril]
ACE inhibition profile compared with captopril [1]: essentially does not differ from the inhibition profile obtained with captopril
inhibition of angiotensin converting enzyme activity [1]: concentration dependant
reactivation of inactivated papain (papain; 5 mM reduced glutathione): could be restored by reduced glutathione
papain enzyme activity after incubation (papain; 10 minutes at room temperature, 50 mM sodium acetate, 2 mM EDTA, CPSSA 0-5 mM, FIG. 1): significant decrease of enzyme activity
degree of inhibition of papain (papain; various concentrations of CPSSA, FIG. 1): concentration dependent
activity in decreasing levels of triglycerides compared with captopril ([2]; CPSSA 40 and 57 mg/kg vs captopril 80 mg/kg, FIG. 4): more active than captopril
effect on body weight [2, 3]: No effects on body weight
effect on blood pressure ([2]; two weeks in drinking water, CPSSA 40 and 57 mg/kg, captopril 80 mg/kg, FIG. 3): significantly decreased blood pressure
effect on serum levels of triglycerides ([2]; two weeks in drinking water, CPSSA 40 and 57 mg/kg, captopril 80 mg/kg, FIG. 4): reduced the serum levels of triglycerides
effect on serum insulin levels [2, 3]: decreased serum insulin levels to normal values

C[C@H](CS)C(=O)N1CCC[C@H]1C(=O)O [captopril, D-3-mercapto-2-methylpropanoyl-L-proline]
effect on body weight [2, 3]: No effects on body weight
effect on serum insulin levels [2, 3]: decreased serum insulin levels to normal values
